Data on 5 compounds can be found in US6979553B2, “Use of Nernstein voltage sensitive dyes in measuring transmembrane voltage” (Caliper Life Sciences, Inc., priority 1999, dated 2005).

Structures can show the parent of a compound that is named as a salt. Where two headings read alike, the source gives them in different places.

For test [1], the system named is THP-1 cells. The test can be described thus: Transmembrane potential assay on Caliper 3B5 microfluidic processor, THP-1 cells. It counts as cell-based. To be noted: 50 μM UTP in high sodium buffer, resting approximately −40 mV. The protocol: Changes in the cell transmembrane potential were detected in microfluidic processor by the mixing of cells and the dyes DiBAC4(3) and SYTO62. […] Dye uptake by THP-1 cells was measured on a Caliper® 3B5 microfluidic processor (FIG. 5). One of the long channels of the processor contained THP-1 cells (3×10^6 cells/ml) suspended in high sodium buffer as above, while the other long channel contained 400 nM DiBAC4(3) and 10 μM SYTO62 in high sodium buffer. Transmembrane potential was set to resting potential, hyperpolarization or depolarization by placing either high sodium, 50 μM UTP in high sodium or high potassium buffer in the short arm. Resting, hyperpolarized and depolarized potentials are estimated to be approximately −40, −100 and 0 mV respectively. The microfluidic processor was maintained at room temperature (˜23° C.). DiBAC4(3) and SYTO62 fluorescence was read after the cells had traveled approximately 90 seconds from the junction (ΔP˜1″H2O). Panel A depicts the average fluorescence ratio (DiBAC4(3)/SYTO62) for runs of ˜80 cells each. Error bars are standard error values. As shown in panel B, Histograms show the expected voltage dependent changes in the fluorescence intensities of individual cells as a function of transmembrane potential.

Test [2] relates to THP-1 cells. As to the kind of experiment: Lab-on-a-chip membrane potential assay, uptake of DiBAC4(3) and Syto 62 by THP-1 cells. In kind it is cell-based. The text has this: The microfluidic technology used in the LabChip® system for this example utilizes microchannels etched into quartz chips coupled with a sampling micropipette that can access samples from microtitre plates. The LabChip® system accesses liquid samples sequentially from a microplate, mixes the samples with cells flowing through a microchannel and reads out cellular responses using fluorescence detection. The system was applied to the measurement of changes in transmembrane potential. […].
As show in FIG. 8, panel A and panel B, the lab-on-a-chip system which was used consisted of quartz chip 801 containing microchannels 803 and 805 connected to Sipper™ capillary 807, robot 809 to move microplate 811, light source 813, optics 815 and fluorescence reader 817, vacuum pump 816, and a computer to control system functions and record data. Light from light source 813 (e.g., mercury arc lamp (470 nm) or an argon ion laser) was focused onto microchip 801 with through optics 815 comprising an objective (10×, 0.3 NA air). Fluorescence was collected with the objective, split into two channels (525 nm and 700 nm) and detected with fluorescence reader 817 which comprises photodiodes. Fluorescence readings were acquired at 20–90 Hz. The three axis robot 809 was used to position microplate 811 so that chip 801 could sample microplate 811, whether in a 96 or 384 well configuration.
A schematic of chip 801 with 90×20 μm channels is shown in FIG. 8, panel B. Flowing cells from cell well 819 were mixed with samples introduced through the Sipper™ capillary 807 (20 μm ID). The flow rate in the detection channel was varied from 2 to 10 nl/s by varying the vacuum applied to waste well 821. Agonists or dyes were added from side well 823. The incubation time in detection channel 803 was varied between 10 and 75 seconds by varying the applied pressure and the location of detector elements (e.g., optics 815) relative to chip 801.
As shown in panel A, the potential sensitive fluorescence signal was derived not from the slow re-equilibration of dyes that were pre-loaded into cells but rather from the rate of uptake of charged, membrane-permeable dyes. Using both an anionic dye, DiBAC4(3), and a cationic dye, Syto 62, yielded a ratiometric measurement with increased sensitivity. Cells were mixed on chip with test samples and dyes stored on the chip. After a short incubation in the detection channel, the fluorescence of individual cells was detected.
As shown in panel B, peaks in green (DiBAC) and red (Syto 62) fluorescence corresponded to THP-1 cells mixed with either buffer, UTP or quinidine sulfate flowing past the detector following a 75 second dye incubation.
As shown in panels C and D, the rate of uptake of DiBAC4(3) (C) and Syto 62 (D) was determined from the average fluorescence peak height as a function of the incubation time for resting cells (∘), cells hyperpolarized with UTP (▪) and cells depolarized with quinidine sulfate (Δ). Compared to resting cells, the rate of increase of DiBAC4(3) peak heights was 48±11% (mean±se, n=5) higher for depolarized cells and 43±5% lower for hyperpolarized cells. Similarly, the rate of increase of the Syto 62 peaks was 7±2% lower for depolarized cells and 37±3% higher for hyperpolarized cells.
As shown in panel A, a calibration curve relating the ratio of DiBAC4(3)/Syto 62 fluorescence (n=20 to 130 cells) to membrane potential was constructed by increasing the K+ conductance of the THP-1 cells and varying the extracellular K+ concentration. […]

Test [3] concerns peripheral blood T lymphocytes. It counts as cell-based, human. The following applies: for change in DiBAC4(3)/Syto 62 ratio (depolarization): resting T lymphocytes. From the text:
Resting or mitogen activated peripheral blood T lymphocytes (90% CD3+) were flowed through the chip and mixed with ion channel modulators accessed through the Sipper™ capillary. Average DiBAC4(3)/Syto 62 ratios ±SE (n=2–6) are shown.
Thus, cell based assays of calcium flux and membrane potential were run in the lab-on-a-chip system. A novel approach for measurement of membrane potential was used to detect hyperpolarization and depolarization with high sensitivity. The microfluidic format reduced reagent, sample and cell consumption. As few as 50–200 cells and as little as 10 nl of sample were used per test. […]

Turning to `O=c1ccn([C@@H]2O[C@H](COP(=O)(O)OP(=O)(O)OP(=O)(O)O)[C@@H](O)[C@H]2O)c(=O)[nH]1` [UTP], in the test with THP-1 cells [1], the “transmembrane potential (hyperpolarized), estimated” value is listed as approximately −100 mV. In the test with THP-1 cells [2] (hyperpolarized cells), the “rate of increase of DiBAC4(3) peak heights, lower compared to resting cells” value worked out at 43±5% and the “rate of increase of the Syto 62 peaks, higher compared to resting cells” value is listed as 37±3%.
Regarding `C=C[C@H]1C[N@@]2CC[C@H]1C[C@@H]2[C@@H](O)c1ccnc2ccc(OC)cc12` [quinidine sulfate], the “change in the average DiBAC4(3)/Syto 62 ratio” value in the test on THP-1 cells [2] (average±SD, n=3) was “dose dependent depolarization”. Also, the “rate of increase of the Syto 62 peaks, lower compared to resting cells” value in the test with THP-1 cells [2] (depolarized cells) turned out to be 7±2%. The “rate of increase of DiBAC4(3) peak heights, higher compared to resting cells” value with THP-1 cells [2] (depolarized cells, mean±se, n=5) was found to be 48±11%.
With `C[C@H](CCC(=O)O)C[C@H](C)C[C@H](C)C(=O)/C=C(\O)[C@H](C)C[C@H](C)C/C=C/[C@@H](C)[C@@H](O)[C@@H](C)[C@@H](O)C[C@@H]1CC[C@@](C)([C@H]2CC[C@@](C)([C@@H](C)O)O2)O1` [ionomycin], the “DiBAC4(3)/Syto 62 ratio (hyperpolarization)” value in test [3] (mitogen activated T lymphocytes in the presence of ionomycin, compared to resting T lymphocytes, p<0.05) is listed as “lower ratio compared to resting T lymphocytes”. The “change in DiBAC4(3)/Syto 62 ratio (depolarization)” value in test [3] (15 μM) is “not”.
For “margatoxin (TIINVKCTSPKQCLPPCKAQFGQSAGAKCMNGKCKCYPH; UniProt P40755 1-39, looked up)”, the “change in DiBAC4(3)/Syto 62 ratio (depolarization)” value in test [3] (36 μM, p<0.05) is “significant increase in DiBAC4(3)/Syto 62 ratio”.
With `Clc1ccccc1C(c1ccccc1)(c1ccccc1)n1ccnc1` [clotrimazole], the “change in DiBAC4(3)/Syto 62 ratio” value in test [3] (mitogen activated T lymphocytes in the presence of ionomycin, 30 μM, p<0.05) is on record as “ratio increases significantly”. Moreover, the “change in DiBAC4(3)/Syto 62 ratio (depolarization)” value in test [3] (30 μM) is given as “not”.
